target: T1, IL-17A/A (Homo sapiens, UniProt Q16552); assay: IL-17A/A HEK-Blue Cell Assay; format: cell-based; conditions: HEK-Blue IL-17A reporter cell line, SEAP readout at A630, 20 hours incubation with IL-17A/A; top concentration 10 uM, 1 uM or 0.3 uM
T1 construct: purchased Genscript Z03228
T1 sequence (Q16552 24-155): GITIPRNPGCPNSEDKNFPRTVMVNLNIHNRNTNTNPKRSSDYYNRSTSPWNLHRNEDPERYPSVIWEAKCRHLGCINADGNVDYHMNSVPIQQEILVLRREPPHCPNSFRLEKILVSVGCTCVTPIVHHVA
Procedure: The HEK-Blue IL-17A reporter cell line (Fisher #NC1408637) was used for cell-based IL-17A/A inhibition assays. Cells were grown and prepared for assays according to the manufacturer's instructions. This cell line consists of HEK 293 cells that were designed to expressed IL-17RA, IL-17RC, and the ActI adapter molecule, the combination of which, when stimulated by IL-17A/A activates a NFκB promoter and drives expression of a recombinant Secreted Alkaline Phosphatase (SEAP) geneprotein. Media from the cells is then added to a development reagent (Quanti-Blue Substrate, Fisher #NC9711613), and read at A630.
Compounds were titrated in DMSO, with a top final compound concentration of 10 uM, 1 uM, or 0.3 uM, and added to the cells immediately before adding IL-17A/A (Genscript #Z03228). The cells, compound, and IL-17A/A were then incubated for 20 hours before media was removed for SEAP analysis. The resulting inhibition curve was then analyzed using Graphpad Prism 7.0, and IC50 values were determined using a 4-parameter nonlinear fit. DMSO was added to a universal final concentration of 0.1% to optimize background.

Question: For `CCC(=O)N[C@@H](C(=O)N1CCN(C)CC1)[C@@H](C)c1ccc(NC(=O)C(NC(=O)c2ccnn2CC)C(CC)c2ccc(F)cc2)c(F)c1` (single isomer, unassigned) [Compound 553], which “IL-17A/A inhibition (pIC50)” value is on record?
Answer: X2a (compounds were evaluated up to 1 uM and did not inhibit activity by >80%, however they showed some activity at 1 uM (less than 80% and more than 20%))

Question: How did the “IL-17A/A inhibition (pIC50)” value turn out when `CCC(=O)N[C@@H](C(=O)N1CCN(C)CC1)[C@@H](C)c1ccc(NC(=O)C(NC(=O)c2ccnn2CC)C(CC)c2ccc(F)cc2)c(F)c1` (single isomer, unassigned) [Compound 556] was run?
Answer: X2a (compounds were evaluated up to 1 uM and did not inhibit activity by >80%, however they showed some activity at 1 uM (less than 80% and more than 20%))

Question: `CCC(=O)N[C@@H](C(=O)N1CCN(C)CC1)[C@@H](C)c1ccc(NC(=O)C(NC(=O)c2nonc2CC)C(CC)c2ccc(F)cc2)c(F)c1` (single isomer, unassigned) [Compound 559] was tested. Which “IL-17A/A inhibition (pIC50)” value did it give?
Answer: X2b (compounds were evaluated up to 1 uM and inhibited activity at 1 uM by less than 20%)

Question: For `CCC(=O)N[C@@H](C(=O)N1CCN(C)CC1)[C@@H](C)c1ccc(NC(=O)C(NC(=O)c2ccnn2CC)C(CC)c2ccc(Cl)cc2)c(F)c1` (single isomer, unassigned) [Compound 560], which “IL-17A/A inhibition (pIC50)” value is on record?
Answer: X2b (compounds were evaluated up to 1 uM and inhibited activity at 1 uM by less than 20%)

Question: With `CCC(=O)N[C@@H](C(=O)N1CCN(C)CC1)[C@@H](C)c1ccc(NC(=O)C(NC(=O)c2ccnn2CC)C(CC)c2ccc(Cl)cc2)c(F)c1` (single isomer, unassigned) [Compound 563] as the compound, how does the “IL-17A/A inhibition (pIC50)” value read?
Answer: X2b (compounds were evaluated up to 1 uM and inhibited activity at 1 uM by less than 20%)

Question: For `CCC(=O)N[C@@H](C(=O)N1CCN(C)CC1)[C@@H](C)c1ccc(NC(=O)C(NC(=O)c2nonc2CC)C(CC)c2ccc(Cl)cc2)c(F)c1` (single isomer, unassigned) [Compound 564], which “IL-17A/A inhibition (pIC50)” value is on record?
Answer: X2a (compounds were evaluated up to 1 uM and did not inhibit activity by >80%, however they showed some activity at 1 uM (less than 80% and more than 20%))

Question: How did the “IL-17A/A inhibition (pIC50)” value turn out when `CCC(=O)N[C@@H](C(=O)N1CCN(C)CC1)[C@@H](C)c1ccc(NC(=O)C(NC(=O)c2ccnn2CC)C2CCc3cc(F)ccc32)c(F)c1` (single isomer, unassigned) [Compound 571] was run?
Answer: X2a (compounds were evaluated up to 1 uM and did not inhibit activity by >80%, however they showed some activity at 1 uM (less than 80% and more than 20%))

Question: For `CCC(=O)N[C@@H](C(=O)N1CCN(C)CC1)[C@@H](C)c1ccc(NC(=O)C(NC(=O)c2nonc2CC)C(C)C2CCC(C)CC2)c(F)c1` (single isomer, unassigned) [Compound 584], which “IL-17A/A inhibition (pIC50)” value is on record?
Answer: X2b (compounds were evaluated up to 1 uM and inhibited activity at 1 uM by less than 20%)

Question: With `CCC(=O)N[C@@H](C(=O)N1CCN(C)CC1)[C@@H](C)c1ccc(NC(=O)C(NC(=O)c2ccnn2CC)C(C)C2CCC(C)CC2)c(F)c1` (single isomer, unassigned) [Compound 585] as the compound, how does the “IL-17A/A inhibition (pIC50)” value read?
Answer: X2a (compounds were evaluated up to 1 uM and did not inhibit activity by >80%, however they showed some activity at 1 uM (less than 80% and more than 20%))

Question: Which “IL-17A/A inhibition (pIC50)” value does the source give for `CCC(=O)N[C@@H](C(=O)N1CCN(C)CC1)[C@@H](C)c1ccc(NC(=O)C(NC(=O)c2nonc2CC)C(C)C2CCC(F)(F)CC2)c(F)c1` (single isomer, unassigned) [Compound 588] here?
Answer: X3b (compounds were evaluated up to 0.3 uM and inhibited activity at 0.3 uM by less than 20%)

Question: For `CCC(=O)N[C@@H](C(=O)N1CCN(C)CC1)[C@@H](C)c1ccc(NC(=O)C(NC(=O)c2ccnn2CC)C(C)C2CCC(F)(F)CC2)c(F)c1` (single isomer, unassigned) [Compound 589], which “IL-17A/A inhibition (pIC50)” value is on record?
Answer: X3b (compounds were evaluated up to 0.3 uM and inhibited activity at 0.3 uM by less than 20%)

Question: For `CCC(=O)N[C@@H](C(=O)N1CCN(C)CC1)[C@@H](C)c1ccc(NC(=O)C(NC(=O)c2nonc2CC)C(C)C2CCC(F)(F)CC2)c(F)c1` (single isomer, unassigned) [Compound 590], which “IL-17A/A inhibition (pIC50)” value is on record?
Answer: X3b (compounds were evaluated up to 0.3 uM and inhibited activity at 0.3 uM by less than 20%)

Question: With `CCC(=O)N[C@@H](C(=O)N1CCN(C)CC1)[C@@H](C)c1ccc(NC(=O)C(NC(=O)c2ccnn2CC)C(C)C2CCC(F)(F)CC2)c(F)c1` (single isomer, unassigned) [Compound 591] as the compound, how does the “IL-17A/A inhibition (pIC50)” value read?
Answer: X3b (compounds were evaluated up to 0.3 uM and inhibited activity at 0.3 uM by less than 20%)

same assay, conditions: HEK-Blue IL-17A reporter cell line, SEAP readout at A630, 20 hours incubation with IL-17A/A; top concentration 10 uM, 1 uM or 0.3 uM; read-out: IL-17A/A inhibition (pIC50) (converted)

Question: Which IC50 does the source give for `CCC(=O)N[C@@H](C(=O)N1CCN(C)CC1)[C@@H](C)c1ccc(NC(=O)C(NC(=O)c2ccnn2CC)C(C)c2ccc(C)cc2)c(F)c1` (single isomer, unassigned) [Compound 294] here?
Answer: 10 to 100 nM

Question: For `CCC(=O)NC(C(=O)N1CCN(C(C)C)CC1)[C@@H](C)c1ccc(NC(=O)[C@@H](NC(=O)c2ccnn2CC)[C@H]2CC[C@H](C)CC2)c(F)c1` (single isomer, unassigned) [Compound 368], which IC50 is on record?
Answer: 10 to 100 nM

Question: Which IC50 does the source give for `CCC(=O)N[C@@H](C(=O)N1CCN(C)CC1)[C@@H](C)c1ccc(NC(=O)C(NC(=O)c2ccnn2CC)C(CC)c2ccc(F)cc2)c(F)c1` (single isomer, unassigned) [Compound 554] here?
Answer: 100 to 10000 nM

Question: Which IC50 does the source give for `CCC(=O)N[C@@H](C(=O)N1CCN(C)CC1)[C@@H](C)c1ccc(NC(=O)C(NC(=O)c2ccnn2CC)C(CC)c2ccc(F)cc2)c(F)c1` (single isomer, unassigned) [Compound 555] here?
Answer: < 10 nM

Question: Which IC50 does the source give for `CCC(=O)N[C@@H](C(=O)N1CCN(C)CC1)[C@@H](C)c1ccc(NC(=O)C(NC(=O)c2nonc2CC)C(CC)c2ccc(F)cc2)c(F)c1` (single isomer, unassigned) [Compound 557] here?
Answer: 100 to 10000 nM

Question: For `CCC(=O)N[C@@H](C(=O)N1CCN(C)CC1)[C@@H](C)c1ccc(NC(=O)C(NC(=O)c2nonc2CC)C(CC)c2ccc(F)cc2)c(F)c1` (single isomer, unassigned) [Compound 558], which IC50 is on record?
Answer: < 10 nM

Question: `CCC(=O)N[C@@H](C(=O)N1CCN(C)CC1)[C@@H](C)c1ccc(NC(=O)C(NC(=O)c2ccnn2CC)C(CC)c2ccc(Cl)cc2)c(F)c1` (single isomer, unassigned) [Compound 562] was tested. Which IC50 did it give?
Answer: 10 to 100 nM

Question: With `CCC(=O)N[C@@H](C(=O)N1CCN(C)CC1)[C@@H](C)c1ccc(NC(=O)C(NC(=O)c2nonc2CC)C(CC)c2ccc(Cl)cc2)c(F)c1` (single isomer, unassigned) [Compound 565] as the compound, how does the IC50 read?
Answer: < 10 nM

Question: With `CCC(=O)N[C@@H](C(=O)N1CCN(C)CC1)[C@@H](C)c1ccc(NC(=O)C(NC(=O)c2ccnn2CC)C2CCc3cc(F)ccc32)c(F)c1` (single isomer, unassigned) [Compound 568] as the compound, how does the IC50 read?
Answer: < 10 nM

Question: For `CCC(=O)N[C@@H](C(=O)N1CCN(C)CC1)[C@@H](C)c1ccc(NC(=O)C(NC(=O)c2nonc2CC)C2CCc3cc(F)ccc32)c(F)c1` (single isomer, unassigned) [Compound 569], which IC50 is on record?
Answer: 100 to 10000 nM

Question: Which IC50 does the source give for `CCC(=O)N[C@@H](C(=O)N1CCN(C)CC1)[C@@H](C)c1ccc(NC(=O)C(NC(=O)c2nonc2CC)C2CCc3cc(F)ccc32)c(F)c1` (single isomer, unassigned) [Compound 570] here?
Answer: < 10 nM

Question: `CCn1nccc1C(=O)N[C@H](C(=O)Nc1ccc([C@H](C)C(NC(=O)C(C)F)C(=O)N2CCN(C)[C@@H](C)C2)cc1F)[C@H]1CC[C@H](C)CC1` (single isomer, unassigned) [Compound 592] was tested. Which IC50 did it give?
Answer: 10 to 100 nM

Question: With `CCc1nonc1C(=O)N[C@H](C(=O)Nc1ccc([C@H](C)C(NC(=O)C(C)F)C(=O)N2CCN(C)[C@@H](C)C2)cc1F)[C@H]1CC[C@H](C)CC1` (single isomer, unassigned) [Compound 594] as the compound, how does the IC50 read?
Answer: < 10 nM

Source: patent US12421212B2, “Substituted benzenecarboxamides as IL-17A modulators” (DiCE Alpha, Inc., priority 2019, dated 2025)
